Test results: patent US20130336987A1, “Identification of Therapeutic Targets in Cutaneous SCC” (UNIVERSITY OF DUNDEE, priority 2010, published 2013)
Entries after “also recorded” stand apart in the source; their conditions may differ.

Assays:
[1] = test system: cSCC keratinocytes (SCCIC1, SCCRDEB2); assay: MTS cell viability assay in cSCC keratinocytes; type: cell-based, human; conditions: 72 hours, GW843682X 10 μM, BI2536 5 μM
Procedure: For the initial high-throughput RNAi screen we used a custom library to our 21 up regulated genes containing the top 3 siRNA oligonucleotides per gene as ranked by Sigma. In each experiment a negative control (MISSION® siRNA Universal Negative Control #1, Sigma) and positive control (AllStars Hs Cell Death Control siRNA, Qiagen) were used. Cells were seeded in 96-well plates at 5000 cells/well in 100 μl keratinocyte media and transfected 24 hours later with siRNA (40 nM final concentration) using Lipofectamine™ 2000, Invitrogen, Carlsbad, Calif.) diluted in Opti-MEM® (Invitrogen) according to manufacturers instructions. Cell viability was assessed at 48, 72 and 96 hours post-transfection, and a reading taken at time zero (pre-transfection), using the MTS CellTitre 96 AQueous One Solution Cell Proliferation Assay (Promega, Madison, Wis.) according to manufacturers instructions. Absorbance readings were taken at 490 nm using a VersaMax microplate reader (Molecular Devices, Sunnyvale, Calif.).
For RNAi transfection, cells were seeded in 6-well plates at 2.5×10^5 cells/well and 24 hours later transfected as described above. Cells were left for 16 hours then trypsinized, counted on a CASY counter (Roche Diagnostics Ltd, West Sussex, UK) and seeded in 96 well plates at 3000 cells/well in 100 μl media. […] Viability was assessed as before.

cSCC keratinocytes [2] = assay: Cell Death Detection ELISA (apoptosis, cytoplasmic nucleosomes) in cSCC cells; type: cell-based, human; conditions: GW843682X 10 μM, BI2536 5 μM, relative to drug vehicle control
Procedure: Apoptosis was detected using the Cell Death Detection ELISA^PLUS (Roche Diagnostics Ltd, West Sussex, UK). Cells were seeded in 24-well plates at 0.5×10^5 cells/well for 24 hours and either transfected with siRNA or treated with small molecule inhibitors for 24 or 16 hours respectively before collecting lysates and performing ELISA as described by manufacturer.

[3] = test system: normal human keratinocytes (NHK); assay: MTS cell viability assay in normal keratinocytes; type: cell-based; conditions: 72 hours, GW843682X 10 μM, BI2536 5 μM
Procedure: For RNAi transfection, cells were seeded in 6-well plates at 2.5×10^5 cells/well and 24 hours later transfected as described above. Cells were left for 16 hours then trypsinized, counted on a CASY counter (Roche Diagnostics Ltd, West Sussex, UK) and seeded in 96 well plates at 3000 cells/well in 100 μl media. Cell viability was determined using the MTS assay as described above, with an absorbance reading at time of seeding (T0) and readings 48 and 72 hour post transfection. For small molecule inhibitor treatment cells were seeded in 96-well plates at 3000 cells/well and 24 hours later 100 μl fresh media containing drug at the designated final concentrations added. Viability was assessed as before.

cSCC keratinocytes [4] = assay: Cell cycle analysis (BrdU / propidium iodide, flow cytometry); type: cell-based, human; conditions: 20 hours following drug treatment, GW843682X 10 μM, BI2536 5 μM
Procedure: Cells were RNAi transfected or drug treated for designated times before BrdU (Sigma) was added at 30 μM final volume for 20 min. Cells were collected and fixed by dropping 1 ml cell suspension in PBS into 3 ml ice cold ethanol while vortexing. Pepsin (Sigma) was added at 1 mg/ml in 30 mM HCL for 30 min and DNA denatured with 2N HCL for 20 min. Anti-BrdU antibody (Becton Dickinson) diluted in PBS/0.5% Tween/0.5% BSA was added for one hour followed by 30 min incubation with a FITC-sheep anti-mouse IgG (Sigma). Propidium iodide (Sigma) was added in the final wash step at a concentration of 25 μg/ml and samples analyzed using a FACScan flow cytometer and CellQuest software (Becton Dickinson).

SCCIC1 xenograft tumors = assay: SCCIC1 xenograft tumor treatment in SCID mice; type: in vivo, SCID Balb/c mice
Procedure: FIG. 6—PLK1 inhibition and c20orf20 knockdown inhibits tumor growth in vivo. Female SCID Balb/c mice were subcutaneously injected in the right flank with 4×10^6 SCCIC1 cells mixed with high-concentration Matrigel®. When tumors reached a volume of 100 mm^3, animals were organised in treated and control groups. (A) Top panel: SCCIC1 tumors were treated with the PLK1 inhibitor, BI 2536. The treated group (n=3) was injected into the tumor with 100 μl of BI 2536 formulated in hydrochloric acid (0.1 N), diluted with 0.9% NaCl at a dose of 25 mg/kg, 3 times a week during 2 weeks. The control group (n=2) was injected with the vehicle at the same schedule. Tumor volumes were measured 3 times a week with a calliper for a further 2 weeks after treatment. Bottom panel: SCCIC1 tumors were treated with c20orf20 siRNA. The treated group (n=3) was injected into the tumor with 580 pmol c20orf20 targeting siRNA duplex in 100 μl PBS. The control group was injected with 580 pmol non-targeting siRNA duplex in approximately 100 μl PBS. Each group was treated every other day for 16 cycles. The animals were sacrificed 2 days after the last treatment. (B) Representative H&E stained section (top) and keratin immunostained section (bottom) of control (left) and BI2536-treated (right) SCCIC1 tumors after 2 weeks of treatment. A subset of animals was sacrificed at the end of the 6 cycles of treatment without waiting 2 more weeks. […] The control tumors contained numerous SCCIC1 cells (100× magnification). (C) Representative pictures from the experiment shown in (A) of vehicle (top left, tumor bisected showing both halves delineated by the dashed line) and BI2536-treated (top right) SCCIC1 tumors. […]
Primary keratinocytes were isolated and grown in the presence of a mitotically inactivated 3T3 feeder layer as described (Rheinwald and Beckett, 1981). […] Tumors were measured by caliper and treatment began when volume reached 100 mm^3.

SMILES	cell viability (MTS assay) [1]	apoptosis (cleaved nucleosomes in the cytoplasm) (cSCC keratinocytes [2])	growth of normal primary keratinocytes (MTS assay) [3]	cell cycle distribution (G0/G1, S, G2/M) (cSCC keratinocytes [4])	tumor volume at the end of the 6 cycles of treatment (SCCIC1 xenograft tumors; BI2536 25 mg/kg injected into the tumor, 3 times a week, 2 weeks, treated versus control group)	presence of tumor keratinocytes in the tumor (histology) (SCCIC1 xenograft tumors; BI2536 25 mg/kg injected into the tumor, 3 times a week, after 2 weeks of treatment, versus vehicle, 25 mg/kg)	efficacy in treating cSCC in vivo (SCCIC1 xenograft tumors; BI2536, SCCIC1 xenograft)
COc1cc2ncn(-c3cc(OCc4ccccc4C(F)(F)F)c(C(N)=O)s3)c2cc1OC [GW843682X]	potent reduction of cell viability	substantial induction of apoptosis	no effect	accumulation of cells at the G2/M phase			
CC[C@@H]1C(=O)N(C)c2cnc(Nc3ccc(C(=O)NC4CCN(C)CC4)cc3OC)nc2N1C1CCCC1 [BI2536]	potent reduction of cell viability	substantial induction of apoptosis	no effect	accumulation of cells at the G2/M phase	no difference in tumor volume	without any discernable SCCIC1 tumor cells; also recorded: marked reduction in the presence of tumor keratinocytes	dramatic efficacy
